Data published in patent US6372723B1, “Compositions and methods for preventing restenosis following revascularization procedures” (Discovery Therapeutics, Inc., priority 1997, dated 2002).

Columns and labels:
[1] = tested on: rabbits with focal femoral atherosclerosis (arterial stenosis); test: Restenosis after balloon angioplasty in rabbits with focal femoral atherosclerosis; type: in vivo; conditions: rabbit
Method: Focal femoral atherosclerosis is induced in rabbits by air desiccation endothelial injury followed by a 2% cholesterol, 6% peanut oil diet for one month. The degree of arterial stenosis is assessed angiographically. At this time, balloon angioplasty is performed using a 2.5 mm balloon, which is inserted into the region of stenosis and inflated with three 60-second, 10-atmosphere inflations 60 seconds apart. This procedure is similar to that used in humans for clearing coronary blood vessels. Rabbits receive an intravenous infusion of 2-cyclohexylmethylenehydrazinoadenosine (0.6 μg/kg/min) or vehicle starting 10 minutes before the angioplasty procedure and continuing for 1 day following angioplasty. Angiograms are performed before and after angioplasty and at 28 days after angioplasty. These angiograms are analyzed quantitatively for decrease of arterial stenosis. Rabbits are sacrificed 28 days following angioplasty and arteries are analyzed histopathologically and morphometrically.
Example 1 is followed, with the exception that one rabbit group is treated with an effective amount of a combination of (±)-N^6-endonorboman-2-yl-9-methyladenine (0.25 mg/kg/min) and 5′-N-ethylcarboxamidoadenosine (6 μg/kg/min) instead of 2-cyclohexylmethylenehydrazinoadenosine. […]

[2] = tested on: platelets and neutrophils; test: In vivo activation of neutrophils and platelets after balloon angioplasty, flow cytometry of coronary sinus blood; set-up: species or system human; conditions: humans, i.v. infusion 0.6 μg/kg/min from 10 min before to 1 day after angioplasty
Method: Humans are subjected to balloon angioplasty, and receive either an intravenous infusion of 2-cyclohexylmethylenehydrazinoadenosine (0.6 μg/kg/min) or vehicle starting 10 minutes before the angioplasty procedure and continuing for 1 day following angioplasty. In vivo activation of neutrophils and platelets are measured by taking a blood sample from the coronary sinus and measuring the expression of surface adhesion molecules on platelets and neutrophils by flow cytometry.

[3] = tested on: humans with stenotic arteries (restenosis); test: Incidence of restenosis by angiography six months after balloon angioplasty; type: in vivo, human; conditions: i.v. infusion 0.6 μg/kg/min from 10 min before to 1 day after angioplasty
Method: Humans afflicted with impaired blood flow due to stenotic arteries are subjected to balloon angioplasty, and receive either an intravenous infusion of 2-cyclohexylmethylenehydrazinoadenosine (0.6 μg/kg/min) or vehicle starting 10 minutes before the angioplasty procedure and continuing for 1 day following angioplasty. Six months following the balloon angioplasty procedure, angiography is performed on these subjects to examine the blood vessel subjected to the angioplasty.

SMILES | degree of arterial stenosis vs vehicle group ([1]; i.v. infusion 0.6 μg/kg/min from 10 min before to 1 day after angioplasty, assessed 28 days after angioplasty) | neutrophils that express surface adhesion molecules vs vehicle group [2] | platelets that express surface adhesion molecules vs vehicle group [2] | incidence of restenosis vs vehicle group [3] | degree of arterial stenosis vs vehicle group ([1]; A1 antagonist alone 0.25 μg/kg/min, as Example 1)
Nc1nc(NN=CC2CCCCC2)nc2c1ncn2[C@@H]1O[C@H](CO)[C@@H](O)[C@H]1O [2-cyclohexylmethylenehydrazinoadenosine] | significantly less | significantly fewer | significantly fewer | significantly less | –
Cn1cnc2c(N[C@@H]3C[C@@H]4CC[C@H]3C4)ncnc21 (racemic) [(±)-N^6-endonorbornan-2-yl-9-methyladenine, reference compound] | – | – | – | – | significantly less
